Data taken from patent publication US20230278972A1, “SUBSTITUTED HALOALKYL SULFONANILIDE HERBICIDES” (FMC Corporation, priority 2020, published 2023).

Legend:
Format in all cases: in vivo
[1] = tested on: wheat (Triticum aestivum); test: Test A postemergence, wheat; details: Postemergence, 0 to 100 scale (0 no effect, 100 complete control); for Wheat plant response rating: 500 g ai/ha, visual injury vs untreated controls after approx. 10 days
Procedure, shortened: (§1)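 Greenhouse pot test in a loam–sand blend; compounds delivered in a non-phytotoxic solvent carrying a surfactant, applied either as a directed spray to soil at seeding or over seedlings 2 to 10 cm high with one to two leaves.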

[2] = tested on: blackgrass (Alopecurus myosuroides); test: Test A postemergence, blackgrass; details: Postemergence, 0 to 100 scale (0 no effect, 100 complete control); for Blackgrass plant response rating: 500 g ai/ha, visual injury vs untreated controls after approx. 10 days
Procedure, shortened: (§2)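 Preemergence: seeded pots of loam plus sand received a directed soil spray. Postemergence: seedlings at one to two leaves, 2 to 10 cm high, were oversprayed. Each compound was formulated in a non-phytotoxic solvent mix that included a surfactant.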

corn (Zea mays) = test: Test A postemergence, corn; details: Postemergence, 0 to 100 scale (0 no effect, 100 complete control); for Corn plant response rating: 500 g ai/ha, visual injury vs untreated controls after approx. 10 days
Procedure, shortened: as §2

[3] = tested on: Ryegrass, Italian (Italian ryegrass, Lolium multiflorum); test: Test A postemergence, Ryegrass, Italian; details: Postemergence, 0 to 100 scale (0 no effect, 100 complete control); for Ryegrass, Italian plant response rating: 500 g ai/ha, visual injury vs untreated controls after approx. 10 days
Procedure, shortened: as §2

[4] = tested on: pigweed (Amaranthus retroflexus); test: Test A postemergence, pigweed; details: Postemergence, 0 to 100 scale (0 no effect, 100 complete control); for Pigweed plant response rating: 500 g ai/ha, visual injury vs untreated controls after approx. 10 days
Procedure, shortened: as §2

[5] = tested on: barnyardgrass (Echinochloa crus-galli); test: Test A postemergence, barnyardgrass; details: Postemergence, 0 to 100 scale (0 no effect, 100 complete control); for Barnyardgrass plant response rating: 500 g ai/ha, visual injury vs untreated controls after approx. 10 days
Procedure, shortened: as §1

[6] = tested on: Foxtail, Giant (giant foxtail, Setaria faberi); test: Test A preemergence, Foxtail, Giant; details: Preemergence; for Foxtail, Giant plant response rating: 125 g ai/ha, visual injury on 0 to 100 scale (0 no effect, 100 complete control), approximately 10 days; for Plant response rating, Foxtail, Giant: 0 to 100 scale (0 no effect, 100 complete control)
Procedure, shortened: as §2

[7] = tested on: barnyardgrass (Echinochloa crus-galli); test: Test A preemergence, barnyardgrass; details: Preemergence; for Barnyardgrass plant response rating: 125 g ai/ha, visual injury on 0 to 100 scale (0 no effect, 100 complete control), approximately 10 days; for Plant response rating, Barnyardgrass: 0 to 100 scale (0 no effect, 100 complete control)
Procedure, shortened: as §2

[8] = tested on: Ryegrass, Italian (Italian ryegrass, Lolium multiflorum); test: Test A preemergence, Ryegrass, Italian; details: Preemergence; for Ryegrass, Italian plant response rating: 125 g ai/ha, visual injury on 0 to 100 scale (0 no effect, 100 complete control), approximately 10 days; for Plant response rating, Ryegrass, Italian: 0 to 100 scale (0 no effect, 100 complete control)
Procedure, shortened: as §2

kochia (Bassia scoparia) [9] = test: Test A preemergence, kochia; details: Preemergence; for Kochia plant response rating: 125 g ai/ha, visual injury on 0 to 100 scale (0 no effect, 100 complete control), approximately 10 days; for Plant response rating, Kochia: 0 to 100 scale (0 no effect, 100 complete control)
Procedure, shortened: as §2

[10] = tested on: pigweed (Amaranthus retroflexus); test: Test A preemergence, pigweed; details: for Pigweed plant response rating: 125 g ai/ha, visual injury on 0 to 100 scale (0 no effect, 100 complete control), approximately 10 days; for Plant response rating, Pigweed: 0 to 100 scale (0 no effect, 100 complete control)
Procedure, shortened: as §1

[11] = tested on: galium (catchweed bedstraw, Galium aparine); test: Test A postemergence, galium; details: Postemergence, 0 to 100 scale (0 no effect, 100 complete control); for Galium plant response rating: 500 g ai/ha, visual injury vs untreated controls after approx. 10 days
Procedure, shortened: as §1

[12] = tested on: ragweed (common ragweed, Ambrosia artemisiifolia); test: Test A postemergence, ragweed; details: Postemergence, 0 to 100 scale (0 no effect, 100 complete control); for Ragweed plant response rating: 500 g ai/ha, visual injury vs untreated controls after approx. 10 days
Procedure, shortened: as §2

[13] = tested on: Foxtail, Giant (giant foxtail, Setaria faberi); test: Test A postemergence, Foxtail, Giant; details: Postemergence, 0 to 100 scale (0 no effect, 100 complete control); for Foxtail, Giant plant response rating: 500 g ai/ha, visual injury vs untreated controls after approx. 10 days
Procedure, shortened: as §2

[14] = tested on: ragweed (common ragweed, Ambrosia artemisiifolia); test: Test A preemergence, ragweed; details: Preemergence; for Ragweed plant response rating: 125 g ai/ha, visual injury on 0 to 100 scale (0 no effect, 100 complete control), approximately 10 days; for Plant response rating, Ragweed: 0 to 100 scale (0 no effect, 100 complete control)
Procedure, shortened: as §2

kochia (Bassia scoparia) [15] = test: Test A postemergence, kochia; details: Postemergence, 0 to 100 scale (0 no effect, 100 complete control); for Kochia plant response rating: 500 g ai/ha, visual injury vs untreated controls after approx. 10 days
Procedure, shortened: as §2

[16] = 125 g ai/ha, visual injury approx. 10 days
[17] = 1000 g ai/ha, visual injury, approx. 10 days

SMILES | Wheat plant response rating [1] | Blackgrass plant response rating [2] | Corn plant response rating (corn (Zea mays)) | Ryegrass, Italian plant response rating [3] | Pigweed plant response rating [4] | Barnyardgrass plant response rating [5] | Foxtail, Giant plant response rating [6] | Plant response rating, Foxtail, Giant ([6]; 500 g ai/ha) | Barnyardgrass plant response rating [7] | Plant response rating, Barnyardgrass ([7]; 500 g ai/ha) | Ryegrass, Italian plant response rating [8] | Plant response rating, Ryegrass, Italian ([8]; 500 g ai/ha) | Kochia plant response rating (kochia (Bassia scoparia) [9]) | Plant response rating, Kochia (kochia (Bassia scoparia) [9]; 500 g ai/ha) | Pigweed plant response rating [10] | Plant response rating, Pigweed ([10]; 500 g ai/ha) | Galium plant response rating [11] | Ragweed plant response rating [12] | Foxtail, Giant plant response rating [13] | Ragweed plant response rating [14] | also measured
Cc1cc(C)c(-c2ccnn(CC(C)C)c2=O)cc1NS(=O)(=O)C(F)(F)F [Compound 77] | 70 | 0 | 60 | 0 | 0 | 20 | 90 | 100 | 90 | 90 | 0 | 90 | 0 | 0 | 20 | 30 | 40 | 10 | 40 | 0 | Plant response rating, Wheat [1, 16]: 0; Plant response rating, Blackgrass [2, 16]: 0; Plant response rating, Corn (corn (Zea mays); [16]): 0; Plant response rating, Ryegrass, Italian [3, 16]: 0; Plant response rating, Pigweed [4, 16]: 0; Plant response rating, Barnyardgrass [5, 16]: 0; Plant response rating, Galium [11, 16]: 0; Plant response rating, Ragweed [12, 16]: 0; Plant response rating, Foxtail, Giant [13, 16]: 0; Plant response rating, Ragweed ([14]; 500 g ai/ha): 20; Plant response rating, Kochia (kochia (Bassia scoparia) [15]; [16]): 0; Kochia plant response rating (kochia (Bassia scoparia) [15]): 10
COC1CCN(C(=O)c2cc(NS(=O)(=O)C(F)(F)F)c(C)cc2C)CC1 [Compound 19] | – | – | – | – | – | – | – | – | – | – | – | – | – | – | – | – | – | – | – | – | Plant response rating, Wheat [1, 17]: 50; Plant response rating, Blackgrass [2, 17]: 60; Plant response rating, Corn (corn (Zea mays); [17]): 50; Plant response rating, Ryegrass, Italian [3, 17]: 50; Plant response rating, Pigweed [4, 17]: 80; Plant response rating, Barnyardgrass [5, 17]: 80; Plant response rating, Foxtail, Giant ([6]; 1000 g ai/ha): 100; Plant response rating, Barnyardgrass ([7]; 1000 g ai/ha): 100; Plant response rating, Ryegrass, Italian ([8]; 1000 g ai/ha): 90; Plant response rating, Kochia (kochia (Bassia scoparia) [9]; 1000 g ai/ha): 90; Plant response rating, Pigweed ([10]; 1000 g ai/ha): 100; Plant response rating, Galium [11, 17]: 40; Plant response rating, Ragweed [12, 17]: 80; Plant response rating, Foxtail, Giant [13, 17]: 90; Plant response rating, Ragweed ([14]; 1000 g ai/ha): 90; Plant response rating, Kochia (kochia (Bassia scoparia) [15]; [17]): 70
Cc1cc(C)c(N(S(=O)(=O)C(F)(F)F)S(=O)(=O)C(F)(F)F)cc1C1=NOC2(CCOCC2)C1 [Compound 178] | 30 | 0 | 10 | 30 | 90 | 90 | 90 | 100 | 90 | 100 | 90 | 100 | 90 | 100 | 100 | 100 | 90 | 80 | 20 | 80 | Plant response rating, Wheat ([1]; 125 g ai/ha): 10; Plant response rating, Blackgrass ([2]; 125 g ai/ha): 0; Plant response rating, Corn (corn (Zea mays); 125 g ai/ha): 0; Plant response rating, Ryegrass, Italian ([3]; 125 g ai/ha): 0; Plant response rating, Pigweed ([4]; 125 g ai/ha): 60; Plant response rating, Barnyardgrass ([5]; 125 g ai/ha): 40; Plant response rating, Galium ([11]; 125 g ai/ha): 80; Plant response rating, Ragweed ([12]; 125 g ai/ha): 40; Plant response rating, Foxtail, Giant ([13]; 125 g ai/ha): 0; Plant response rating, Ragweed ([14]; 500 g ai/ha): 90; Plant response rating, Kochia (kochia (Bassia scoparia) [15]; 125 g ai/ha): 20; Kochia plant response rating (kochia (Bassia scoparia) [15]): 70
Cc1cc(C)c(C(=O)N2CCCOCC2)cc1NS(=O)(=O)C(F)(F)F [Compound 160] | 20 | 10 | 10 | 0 | 90 | 80 | 90 | 100 | 80 | 100 | 50 | 60 | 20 | 90 | 90 | 100 | 90 | 80 | 60 | 10 | Plant response rating, Wheat ([1]; 125 g ai/ha): 0; Plant response rating, Blackgrass ([2]; 125 g ai/ha): 0; Plant response rating, Corn (corn (Zea mays); 125 g ai/ha): 0; Plant response rating, Ryegrass, Italian ([3]; 125 g ai/ha): 0; Plant response rating, Pigweed ([4]; 125 g ai/ha): 70; Plant response rating, Barnyardgrass ([5]; 125 g ai/ha): 30; Plant response rating, Galium ([11]; 125 g ai/ha): 80; Plant response rating, Ragweed ([12]; 125 g ai/ha): 70; Plant response rating, Foxtail, Giant ([13]; 125 g ai/ha): 0; Plant response rating, Ragweed ([14]; 500 g ai/ha): 90; Plant response rating, Kochia (kochia (Bassia scoparia) [15]; 125 g ai/ha): 10; Kochia plant response rating (kochia (Bassia scoparia) [15]): 30
